Results published in patent publication US10975394B2, “Recombinant microorganisms for enhanced production of mevalonate, isoprene, and isoprenoids” (Danisco US Inc., priority 2011, dated 2021).
Like-named read-outs stand apart in the source and are kept apart here. Values belong to the compound of their own block, whether it stands above or below them.

Key:
[1] = target: M. burtonii mevalonate kinase (Methanococcoides burtonii, UniProt Q12TI0); assay: Mevalonate kinase coupled spectrophotometric kinetic and inhibition assay; assay type: biochemical; conditions: for kcat: 40 nM purified enzyme, varying mevalonate and ATP
[2] = target: M. mazei mevalonate kinase (Methanosarcina mazei, UniProt Q8PW39); assay: as above; assay type: biochemical; conditions: for Vmax / α / kcat / Ka/b: random bireactant system model; for kcat: 80 nM purified enzyme, varying mevalonate and ATP; for Ka/b: Ka(Mev), Kb(ATP)
[3] = tested on: engineered E. coli strains; assay type: cell-based
[4] = inhibitor added at various concentrations to the reaction mix, read-out: Ki

M. mazei mevalonate kinase, sequence (Q8PW39 entry or part of it): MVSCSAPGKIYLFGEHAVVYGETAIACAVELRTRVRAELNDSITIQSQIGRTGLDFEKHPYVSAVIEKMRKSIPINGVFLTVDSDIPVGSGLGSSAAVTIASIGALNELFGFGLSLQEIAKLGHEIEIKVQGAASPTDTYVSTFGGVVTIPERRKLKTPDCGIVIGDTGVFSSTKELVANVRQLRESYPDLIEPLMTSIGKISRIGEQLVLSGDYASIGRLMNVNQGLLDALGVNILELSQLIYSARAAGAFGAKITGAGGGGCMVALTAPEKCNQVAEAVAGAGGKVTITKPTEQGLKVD
M. burtonii mevalonate kinase, sequence (Q12TI0 entry or part of it): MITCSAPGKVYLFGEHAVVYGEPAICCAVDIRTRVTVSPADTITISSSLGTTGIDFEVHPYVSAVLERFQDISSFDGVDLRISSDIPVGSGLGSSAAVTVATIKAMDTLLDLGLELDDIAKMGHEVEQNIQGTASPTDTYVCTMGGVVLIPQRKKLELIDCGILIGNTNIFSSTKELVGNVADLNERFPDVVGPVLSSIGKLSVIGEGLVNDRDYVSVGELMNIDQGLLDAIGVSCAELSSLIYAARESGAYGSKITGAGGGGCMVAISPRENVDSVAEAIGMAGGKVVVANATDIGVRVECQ

- Ki [1]: > 5 mM
- Ki [2]: > 5 mM
SMILES: C=C(C)CCO[P@@](=O)(O)OP(=O)(O)O [IPP, isopentenyl pyrophosphate, reference compound]

- Ki [1, 4]: > 3 mM
- Ki [2, 4]: > 3 mM
SMILES: CC(O)(CCOP(=O)(O)O)CC(=O)O (stereo not shown) [MVP, reference compound]

- Ki [1, 4]: > 5 mM
- Ki [2, 4]: > 1 mM
SMILES: C[C@@](O)(CCOP(=O)(O)OP(=O)(O)O)CC(=O)O [MVPP, reference compound]

Further lines, the compound ahead of its results:

SMILES: Nc1ncnc2c1ncn2[C@@H]1O[C@H](COP(=O)(O)OP(=O)(O)OP(=O)(O)O)[C@@H](O)[C@H]1O [ATP, Adenosine triphosphate]
- Ka/b [1]: 212 µM
- Vmax ([1]; random bireactant system model): 2.97 µM/s
- α ([1]; random bireactant system model): 3.74
- kcat ([1]; random bireactant system model): 74.3 s⁻¹
- Vmax [2]: 2.14 µM/s
- α [2]: 1.62
- kcat [2]: 26.8 s⁻¹
- Ka/b [2]: 460 µM

SMILES: CC(C)=CCOP(=O)(O)OP(=O)(O)O [DMAPP, dimethylallyl diphosphate, reference compound]
- Ki [1]: > 5 mM
- Ki [2]: > 5 mM

SMILES: CC(C)=CCC/C(C)=C/COP(=O)(O)OP(=O)(O)O [GPP, geranyl pyrophosphate, reference compound]
- Ki [1, 4]: > 5 mM
- Ki [2, 4]: > 5 mM

SMILES: CC(O)(CCO)CC(=O)O (stereo not shown) [Mevalonate, mevalonate]
- Vmax ([1]; random bireactant system model): 1.78 µM/s
- α ([1]; random bireactant system model): 0.52
- kcat ([1]; random bireactant system model): 44.4 s⁻¹
- Ka/b ([1]; random bireactant system model, Ka(Mev), Kb(ATP)): 391 µM
- growth inhibition by mevalonate ([3]; strain MCM2131, mevalonate between 0 and 16 mM): not inhibited
- growth inhibition by mevalonate ([3]; strains MCM2125, MCM2127 and MCM2130, mevalonate 0-16 mM): not inhibited
- Vmax [2]: 1.46 µM/s
- α [2]: 0.23
- kcat [2]: 18.3 s⁻¹
- Ka/b [2]: 397 µM
